Test results taken from PMC6039436, “Radiobrominated benzimidazole-quinoline derivatives as Platelet-derived growth factor receptor beta (PDGFRβ) imaging probes” (Scientific Reports, 2018).
“Also recorded” adds a separate entry of the source.

Assays:
[1] = n-octanol/phosphate buffer partition coefficient; type: physicochemical; details: n-octanol / 0.1 M phosphate buffer pH 7.4; read-out: n-octanol/phosphate buffer partition coefficient (log P)
Procedure: The n-octanol/phosphate buffer partition coefficients of [^77Br]2 were 2.36 ± 0.06 which were lower than [^77Br]3 (3.02 ± 0.04). These values are lower than radioiodinated compounds, [^125I]4 and [^125I]5 at 2.71 ± 0.03 and 3.19 ± 0.17, respectively.
Partition coefficients of [^77Br]2 and [^77Br]3 into n-octanol and 0.1 M phosphate buffer (PB) pH 7.4 were determined using the method described previously. The measurement was performed in quadruplicate. The partition coefficient was determined by calculating the ratio of cpm/mL of n-octanol to that of buffer and expressed as log P. Radioactivity of each layer were counted by a gamma counter.

BxPC3-luc tumor = experiment: In vivo blocking study in tumor-bearing mice; design: species or system BALB/c nu/nu mice; details: 1 h postinjection
Procedure: The tumor uptake of both the control and blocking groups was 1.61 ± 0.24 and 0.96 ± 0.20% ID/g, respectively. Thus, the figures are shown as not only % ID/g but also as tumor-to-blood ratio.
Figure 7 (a) Tumor uptake and (b) tumor/blood uptake ratios of [^77Br]2 and [^125I]4 at 1 h postinjection with 1 (40 mg/kg) (blocking group) or no treatment control group. Data were presented as means ± SD for three or four mice. Significance was determined using an unpaired Student’s t-test (^*p < 0.05, ^**p < 0.01).
For in vivo blocking studies, the tumor-bearing mice were intraperitoneally injected with 200 µL of 1 (40 mg/kg in 15% ethanol and 85% water) 1 h before intravenous injection of 100 µL of saline solution containing [^77Br]2 and [^125I]4 or [^77Br]3 and [^125I]5 (74 kBq, respectively), 1% tween-80 and 10% ethanol. At 1 h postinjection of radiotracers, the mice were sacrificed.
Tissues in mice were resected and weighed. The radioactivity of the tissues was counted by a gamma counter and counts were corrected for background radiation. The data were expressed as percent injection dose per gram tissue (%ID/g).

[2] = tested on: BxPC3-luc cells (PDGFRβ-positive); experiment: Cellular uptake study (double tracer method); type: cell-based; details: BxPC3-luc (PDGFRβ-positive) vs MCF7 (PDGFRβ-negative), 0.5–4 h
Procedure: Figure 5 Cellular uptake study. Time-dependent accumulation of (a) [^77Br]2 and [^125I]4 (b) [^77Br]3 and [^125I]5 in BxPC3-luc and MCF7 cells. Data were presented as mean ± SD for three samples.
Radiotracer uptake experiments in tumor cells were performed using BxPC3-luc and MCF7 cell lines. To compare the uptake between radiobrominated compounds, [^77Br]2 and [^77Br]3, and the corresponding radioiodinated compounds, [^125I]4 and [^125I]5, the cellular uptake experiments were performed by a double tracer method as described previously with a slight modification[30],[31],[35]. Briefly, the cells were seeded in RPMI 1640 medium containing 10% FBS and antibiotics on six-well plates (2 × 10^5 cells/well) for 24 h in a 5% CO2 incubator at 37 °C. After removal of medium, cells were incubated in medium without FBS containing [^77Br]2 (3.7 kBq/well) and [^125I]4 (3.7 kBq/well) or [^77Br]3 (3.7 kBq/well) and [^125I]5 (3.7 kBq/well) and tween-80 (0.1%) for 0.5, 1, 2 and 4 h. Radioiodinated compounds were prepared as described previously][24]. Cells were washed with ice-cold 1 mL of PBS and dissolved using 0.5 mL of 1 M NaOH and wells were washed with 1 M NaOH aqueous solution (0.5 mL). The radioactivity of pooled basic fractions was counted by a gamma counter. A range between 16 and 71 keV was used for measuring ^125I and between 95 and 700 for ^77Br. When radioactivity of ^77Br was counted, the crossover of ^125I activity into the ^77Br channel was negligible. More than one month after the experiment, the radioactivity of ^125I was determined because at that time ^77Br has been decayed and its radioactivity was negligible. The protein in the cell was quantified by a BCA Protein Assay Kit. All data were expressed as %dose/µg protein.

Row | logP [1] | Tumor-to-blood ratio, blocking group vs control (BxPC3-luc tumor; pretreatment with 1 (40 mg/kg)) | Tumor uptake, blocking group (BxPC3-luc tumor; pretreatment with 1 (40 mg/kg, intraperitoneal, 1 h before)) [% ID/g] | SMILES | Cellular uptake in BxPC3-luc cells [2]
1 | 2.36 ± 0.06 | significantly reduced | 0.96 ± 0.20 | COCCOc1ccc2c(c1)ncn2-c1ccc2c([77Br])ccc(N3CCC(N)CC3)c2n1 [[^77Br]2, [^77Br]1-{5-Bromo-2-[5-(2-methoxyethoxy)-1H-benzo[d]imidazol-1-yl]quinoline-8-yl}piperidin-4-amine] | higher than that in MCF7 cells; also recorded: higher uptake of [^77Br]2 than that of [^77Br]3
2 | 3.02 ± 0.04 |  |  | COCCOc1ccc2c(c1)ncn2-c1ccc2cccc(N3CCC(NC(=O)c4cccc([77Br])c4)CC3)c2n1 [[^77Br]3, [^77Br]-N-3-bromobenzoyl-1-{2-[5-(2-methoxyethoxy)-1H-benzo[d]imidazol-1-yl]quinolin-8-yl}-piperidin-4-amine] | more highly accumulated in BxPC3-luc cells than in MCF7 cells
